Laboratory results taken from patent US10406120B2, “Methods and compositions for treating kidney disorders” (Golden Biotechnology Corporation, priority 2013, dated 2019).

Experiments:
NF-κB p65 = experiment: FSGS model: renal NF-κB activation (IHC, ELISA); format: in vivo, BALB/c mice; settings: FSGS mice
Method: (§1) Experiments described herein were performed on 8-week-old female BALB/c mice. The FSGS mice were injected intravenously with a single dose of adriamycin (0.1 mg/10 g body weight). The mice were given Compound 1 six hours before adriamycin injection by gavage daily till sacrifice. BALB/c mice intraperitoneal injected with normal saline were used as normal controls, while ASLN mice given vehicle (corn oil) by gavage were used as disease controls. Mice were killed at day 7, 14, or 21 after disease induction, and spleen, renal cortical tissue, and blood samples collected and stored appropriately until analysis. All animal experiments were performed with the ethical approval of the Institutional Animal Care and Use Committee of The National Defense Medical Center, Taiwan and performed according to the ethical rules in the NIH Guide for the Care and Use of Laboratory Animals.
(§2) For IHC, formalin-fixed and paraffin-embedded renal sections were prepared and incubated with primary antibodies against mouse Desmin (Lab Vision, CA, USA), CD3 (pan-T cell; Serotec, N.C., USA), F4/80 (monocytes/macrophages; Serotec), IL-6 (R&D Systems, MN, USA), NF-κB p65 (Cell Signaling Technology, MA, USA), collagen I, III, and IV (Southern Biotech, AL, USA), or TGF-β1 (Santa Cruz Biotechnology, CA, USA), biotinylated second antibodies (Dako, Glostrup, Denmark), and avidin-biotin-peroxidase complex (Dako). Semi-quantitative evaluation of staining was performed.
Nuclear proteins were extracted using a nuclear extract kit (Active Motif, Japan). Phospho-NF-κB p65 and nuclear factor-erythroid-2-related factor 2 (NrF2) were measured in renal tissue nuclear protein extracts using Trans-AM ELISA assay kits (Active Motif), according to the manufacturer's instructions. Renal cytosolic protein extracts using RIPA buffer (Cell signaling). Cytosolic glutathione peroxidase (GPx) (Cayman, Mich.) and cytosolic heme oxygenase-1 (HO-1) (Enzo Life Sciences, NY) were measured using commercial ELISA kits according to the manufacturer's instructions. Both were expressed relative to the protein concentration in the lysate.

collagen I, III, and IV = experiment: FSGS model: renal collagen accumulation (IHC); format: in vivo, BALB/c mice; settings: FSGS mice
Method: as §1, §2

IL-6 [1] = experiment: AcP-IgAN model: serum IL-6 ELISA; format: in vivo, B cell-deficient mice; settings: AcP-IgAN mice
Method: (§3) B cell-deficient mice (B6.129S2-Igh-6tm1Cgn/J) were obtained from the Academia Sinica (Professor John T. Kung, Institute of Molecular Biology), and maintained at the animal center of the National Defense Medical Center, Taipei, Taiwan. AcP-IgAN was induced in the mice by daily injection of purified IgA anti-phosphorylcholine antibodies and pneumococcal C-polysaccharide (PnC) as described previously (Chao, et al., Kidney Int. 70:283-297; 2006). All animal experiments were performed with the approval of the Institutional Animal Care and Use Committee of The National Defense Medical Center, Taiwan, and were consistent with the NIH Guide for the Care and Use of Laboratory Animals.
(§4) Serum levels of IL-1β (eBiosceience, CA), IL-6 (eBiosceience), IL-18 (MBL, Japan), and MCP-1 (eBiosceience) were measured using commercial ELISA kits according to the manufacturer's instructions.

IL-18 = experiment: AcP-IgAN model: serum IL-18 ELISA; format: in vivo, B cell-deficient mice; settings: AcP-IgAN mice, day 28, vs control AcP-IgAN mice
Method: as §3, §4

IL-6 [2] = experiment: AcP-IgAN model: renal IL-6 mRNA and protein; format: in vivo, B cell-deficient mice; settings: AcP-IgAN mice
Method: as §3
For IHC, formalin fixed and paraffin embedded tissue sections or frozen sections were incubated with against IL-6 (R&D Systems, MN), MCP-1 (Santa Cruz, Calif.), F4/80 (monocytes/macrophages; Serotec, N.C.), collagen IV (Southern Biotech, AL), TGF-β1 (Santa Cruz), phopsho-NFκB p65 (Cell Signaling, MA), CD3 (pan-T cell; Serotec), CD4 (T helper cell; BioLegend, CA), CD8 (cytotoxic T cell), CD11b (macrophages/neutrophils), or CD11c (dendritic cells) (BD Biosciences, CA) antibodies. The FITC-conjugated, Alexa Fluor 488-conjugated (Invitrogen, CA) or horseradish peroxidase (HRP) conjugated secondary antibodies (DAKO, Denmark) were then applied to the sections. Hematoxylin or 4′,6-diamidino-2-phenylindole (DAKO) was used in the counter staining for nuclei.
Total cortical kidney RNA was extracted with TriZOL reagents (Invitrogen) from cortical tissue of the kidney. For first-strand cDNA synthesis, 1.5 μg of total RNA was used in a single-round reverse transcriptase reaction. The reaction mixture consisted of 0.9 μl of Oligo (dT) 12 to 18 primer, 1.0 mM deoxyribonucleotide triphosphate (dNTP), 1 μl first strand buffer, 0.4 mM dithiothreitol, 80 U of RNaseout recombinant ribonuclease inhibitor, and 300 U of superscript II RNase H (Invitrogen). Real-time PCR was performed on an ABI Prism 7700 Sequence Detection System (Applied Biosystems, CA). […]

apoptosis in the kidney = experiment: AcP-IgAN model: apoptosis in the kidney (TUNEL); format: in vivo, B cell-deficient mice
Method: as §3
For the detection of apoptosis, terminal deoxynucleotidyl transferase-mediated dUTP nick-end labeling (TUNEL) was employed. Formalin-fixed and paraffin-embedded tissue sections were stained with ApopTag plus peroxidase in situ apoptosis detection kit (Chemicon, CA) according to the manufacturer's instructions. For scoring, the cortical renal area (including glomerular and peri-glomerular areas) were examined and expressed as cells/glomerular cross-section.

[3] = day 14 to day 21, vs control FSGS mice
[4] = day 28, vs control AcP-IgAN mice

## COC1=C(OC)[C@H](O)[C@H](C/C=C(\C)CC/C=C(\C)CCC=C(C)C)[C@@H](C)C1=O [Compound 1, Antroquinonol]
NF-κB p65; day 7
  nuclear protein expression of NF-κB p65 (ELISA, renal nuclear extracts): no significant difference
NF-κB p65; day 14
  nuclear protein expression of NF-κB p65 (ELISA, renal nuclear extracts): slightly blocked
NF-κB p65; day 14 and day 21, vs control FSGS mice
  NF-κB activation, nuclear NF-κB p65 expression (IHC): markedly inhibited
NF-κB p65; day 21
  nuclear protein expression of NF-κB p65 (ELISA, renal nuclear extracts): significantly inhibited
Collagen I, III, and IV; [3]
  renal expression of collagen I (IHC): significant suppression
  renal expression of collagen IV (IHC): significant suppression
Collagen I, III, and IV; day 21, vs control FSGS mice
  renal expression of collagen III (IHC): significant suppression
IL-6 [1]; day 3, between control AcP-IgAN, AcP-IgAN+Antroq and normal control mice
  serum IL-6 levels: no difference
IL-6 [1]; [4]
  serum levels of IL-6: substantially decreased
IL-18
  serum IL-18 levels: substantial inhibition
IL-6 [2]; day 3
  renal expression levels of mRNA and protein of IL-6: no such effect
IL-6 [2]; [4]
  renal expression levels of mRNA of IL-6: significantly reduced
  renal expression levels of protein of IL-6: significantly reduced
Apoptosis in the kidney; AcP-IgAN mice, day 28, vs control AcP-IgAN mice
  apoptosis in the kidney (TUNEL), increase: greatly inhibited
Apoptosis in the kidney; all the mice examined, day 3
  apoptosis in the kidney (TUNEL): inconspicuous apoptosis
